The source of these data is patent US20250134907A1, “FUSED DIAZEPINES AS AGONISTS OF THE INSULIN-LIKE 3 (INSL3) PEPTIDE RECEPTOR RXFP2 AND METHODS OF USE THEREOF” (The United States of America,as represented by the …, priority 2022, published 2025).

SMILES strings stand for the structures. pEC50: −log10 of the molar value.

The target in the experiment is T1, RXFP2 (Homo sapiens, UniProt Q8WXD0).
T1 construct: expressed in transfected cells
Nature of the experiment: Luciferase cAMP assay in HEK-CRE-Luc-RXFP2 cells. In kind it is cell-based. How it is done:
A confirmatory cAMP assay was done to eliminate false positives using a HEK293T-CRE-Luc cell line stably transfected with RXFP2 (HEK-CRE-Luc-RXFP2), as this cell line expresses luciferase under the control of the cAMP response element (CRE). Activation of the RXFP2 receptor increases intracellular cAMP levels, inducing luciferase transcription in the nucleus. Thus, luciferase activity in these cells is proportional to cAMP accumulation. For this assay, cells were seeded in 96-well flat-bottom opaque plates at 20,000 cells/well in 60 μL/well of serum-free DMEM medium and allowed to attach overnight at 37° C., 5% CO2. The next morning, cells were treated with 1 μL/well of compound (25 μM-0.21 nM), 1 μM forskolin, or DMSO vehicle. Cells were also treated with 4 μL of INSL3 (100-0.01 nM) (Phoenix Pharmaceuticals, Burlingame, CA) or vehicle serum-free DMEM. Cells were incubated with the treatments for 3 hours at 37° C., 5% CO2, then rested 30 minutes at room temperature for equilibration, after which 65 μL/well of substrate AMPLITE™ Luciferase Reporter Gene Assay Kit (AAT Bioquest, Sunnyvale, CA) was added. Plates were incubated for 40 minutes at room temperature protected from light, and then luciferase output was read on a CLARIOstar plate reader (BMG Labtech, Germany). […]

T1 sequence (Q8WXD0 whole entry): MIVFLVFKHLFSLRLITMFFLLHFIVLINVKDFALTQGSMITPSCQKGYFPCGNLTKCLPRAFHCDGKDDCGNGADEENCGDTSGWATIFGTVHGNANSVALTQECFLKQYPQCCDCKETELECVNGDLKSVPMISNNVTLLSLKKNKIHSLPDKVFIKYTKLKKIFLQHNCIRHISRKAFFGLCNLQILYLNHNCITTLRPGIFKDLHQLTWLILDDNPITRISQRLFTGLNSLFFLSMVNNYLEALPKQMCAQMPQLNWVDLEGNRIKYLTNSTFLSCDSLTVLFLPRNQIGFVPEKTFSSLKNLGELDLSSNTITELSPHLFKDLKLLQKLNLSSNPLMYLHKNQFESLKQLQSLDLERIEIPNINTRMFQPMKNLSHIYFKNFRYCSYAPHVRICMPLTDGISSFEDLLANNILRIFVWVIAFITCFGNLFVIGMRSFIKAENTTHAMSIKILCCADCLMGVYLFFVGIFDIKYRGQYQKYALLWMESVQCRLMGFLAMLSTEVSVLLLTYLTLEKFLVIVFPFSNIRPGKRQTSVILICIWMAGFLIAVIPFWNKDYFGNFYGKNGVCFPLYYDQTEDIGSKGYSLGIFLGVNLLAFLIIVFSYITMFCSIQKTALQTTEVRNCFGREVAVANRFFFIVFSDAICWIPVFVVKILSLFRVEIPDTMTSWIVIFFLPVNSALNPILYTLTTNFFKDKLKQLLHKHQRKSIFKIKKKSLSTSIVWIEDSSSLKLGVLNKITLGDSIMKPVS

Where the note is “3 h treatment, 25 μM-[…]”, `O=C1Nc2ccc(-c3cccc(C(F)(F)F)c3)cc2C(=O)N2CCN(C(=O)COc3ccc(OC(F)(F)F)cc3Br)C[C@@H]12` [Example 123, (S)-2-(2-(2-bromo-4-(trifluoromethoxy)phenoxy)acetyl)-8-(3-(trifluoromethyl)phenyl)-1,3,4,12a-tetrahydrobenzo[e]pyrazino[1,2-a][1,4]diazepine-6,12 (2H, 11H)-dione] showed a pEC50 of 7.23. Besides, the “Emax (% Eff vs. 10 nM INSL3)” value (relative to 10 nM INSL3 response) came to 117.1%.
